# Test results from patent US10669238B2, “Irreversible bruton's tyrosine kinase inhibitor” (HEFEI INSTITUTES OF PHYSICAL SCIENCE, CHINESE ACADEMY OF …, priority 2016, dated 2020).
# Molecular target: BTK protein kinase (Homo sapiens, UniProt Q06187)
# Assay: In vitro enzymatic activity against BTK (ADP-Glo)
# Type: biochemical
# Conditions: compound with BTK 4 hours at room temperature; ATP 10 μM, 37° C. 1 hour; value printed in nm
# Method in brief: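 BTK (1.5 ng/μL enzyme solution) was preincubated with compound (final 10 μM to 0.003 μM) for 4 h at room temperature. Reaction ran 1 h at 37 °C with 10 μM ATP and 0.2 μg/μL poly(Glu,Tyr) 4:1 (final). ADP formed was measured by ADP-Glo luminescence, and IC50 was obtained by curve plotting.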
# BTK protein kinase, sequence (Q06187 whole entry): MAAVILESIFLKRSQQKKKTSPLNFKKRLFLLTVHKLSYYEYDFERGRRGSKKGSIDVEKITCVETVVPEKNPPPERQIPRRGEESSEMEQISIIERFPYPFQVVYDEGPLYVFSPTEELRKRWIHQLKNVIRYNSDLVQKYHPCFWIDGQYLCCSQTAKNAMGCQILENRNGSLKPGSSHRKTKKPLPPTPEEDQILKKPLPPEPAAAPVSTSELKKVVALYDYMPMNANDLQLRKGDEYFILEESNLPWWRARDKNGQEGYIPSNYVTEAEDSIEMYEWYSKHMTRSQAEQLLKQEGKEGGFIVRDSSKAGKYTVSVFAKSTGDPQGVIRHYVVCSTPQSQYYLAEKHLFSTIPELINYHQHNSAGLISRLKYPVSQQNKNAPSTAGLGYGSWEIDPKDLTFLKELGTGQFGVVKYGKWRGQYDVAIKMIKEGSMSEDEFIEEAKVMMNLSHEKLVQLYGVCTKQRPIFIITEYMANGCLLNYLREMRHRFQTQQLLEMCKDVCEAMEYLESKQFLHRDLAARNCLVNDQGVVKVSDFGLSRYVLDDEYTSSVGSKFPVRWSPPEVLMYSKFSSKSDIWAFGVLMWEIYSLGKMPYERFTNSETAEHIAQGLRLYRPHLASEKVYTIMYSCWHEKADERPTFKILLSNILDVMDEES
row,SMILES,IC50
1,"C=CC(=O)Nc1cc(Nc2cc(-c3cccc(NC(=O)c4cc5ccccc5s4)c3C)cn(C)c2=O)ccc1N1CCC(OC)CC1 [Compound 87, N-(3-(5-((3-acrylamide-4-(4-methoxypiperidin-1-yl)phenyl)amino)-1-methyl-6-oxo-1,6-dihydropyridin-3-yl)-2-methylphenyl)benzo[b]thiophene-2-carboxamide]",0.126 µM

# Same assay, conditions: compound with BTK 4 hours at room temperature; ATP 10 μM, 37° C. 1 hour; values given in μM
row,SMILES,IC50
1,"C=CC(=O)Nc1cc(Nc2cc(-c3cccc(NC(=O)c4ccccc4)c3C)cn(C)c2=O)ccc1C(=O)N1CCOCC1 [Compound 12, N-(3-(5-((3-acrylamide-4-(morpholin-4-carbonyl)phenyl)amino)-1-methyl-6-oxo-1,6-dihydropyridin-3-yl)-2-methylphenyl)benzoylamide]",4.62 µM
2,"Cc1c(NC(=O)c2ccc(C(C)(C)C)cc2)cc(NC(=O)CCl)cc1-c1cc(Nc2ccc(C(=O)N3CCOCC3)cc2)c(=O)n(C)c1 [Compound 7, 4-(tert-butyl)-N-(5-(2-chloroacetamide)-2-methyl-3-(1-methyl-5-((4-(morpholin-4-carbonyl)phenyl)amino)-6-oxo-1,6-dihydropyridin-3-yl)phenyl)benzoylamide]",1.22 µM

# Same assay, conditions: compound with BTK 4 hours at room temperature; ATP 10 μM, 37° C. 1 hour; values in nM
row,SMILES,IC50
1,"C=CC(=O)Nc1cc(Nc2cc(-c3cccc(NC(=O)c4ccc5c(c4)OCCO5)c3C)cn(C)c2=O)ccc1C(=O)N1CCOCC1 [Compound 44, N-(3-(5-((3-acrylamide-4-(morpholin-4-carbonyl)phenyl)amino)-1-methyl-6-oxo-1,6-dihydropyridin-3-yl)-2-methylphenyl)-2,3-dihydrobenzo[b][1,4]dioxin-6-carboxamide]",0.072 µM
2,"C=CC(=O)Nc1cc(Nc2cc(-c3cccc(NC(=O)c4cc5c(s4)CCCC5)c3C)cn(C)c2=O)ccc1N1CCN(C(C)=O)CC1 [Compound 79, N-(3-(5-((4-(4-acetylpiperazin-1-yl)-3-acrylamidephenyl)amino)-1-methyl-6-oxo-1,6-dihydropyridin-3-yl)-2-methylphenyl)-4,5,6,7-tetrahydrobenzo[b]thiophene-2-carboxamide]",0.082 µM
3,"C=CC(=O)Nc1cc(Nc2cc(-c3cccc(NC(=O)c4cc5ccccc5s4)c3C)cn(C)c2=O)ccc1N1CCOCC1 [Compound 82, N-(3-(5-((3-acrylamide-4-morpholinophenyl)amino)-1-methyl-6-oxo-1,6-dihydropyridin-3-yl)-2-methylphenyl)benzo[b]thiophene-2-carboxamide]",0.0988 µM
4,"Cc1c(NC(=O)c2ccc(C(C)(C)C)cc2)cccc1-c1cc(Nc2ccc(C(=O)N3CCCC3)c(NC(=O)CCl)c2)c(=O)n(C)c1 [Compound 32, N-(3-(5-((3-chloroacetamide-4-(pyrrolidin-1-carbonyl)phenyl)amino)-1-methyl-6-oxo-1,6-dihydropyridin-3-yl)-2-methylphenyl)-4-(tert-butyl)benzamide]",0.029 µM
5,"C=CC(=O)Nc1cc(Nc2cc(-c3cccc(NC(=O)c4ccc5c(c4)CCCC5)c3C)cn(C)c2=O)ccc1C(=O)N1CCOCC1 [Compound 43, N-(3-(5-((3-acrylamide-4-(morpholin-4-carbonyl)phenyl)amino)-1-methyl-6-oxo-1,6-dihydropyridin-3-yl)-2-methylphenyl)-5,6,7,8-tetrahydronaphthalene-2-carboxamide]",0.041 µM
6,"C=CC(=O)Nc1cc(Nc2cc(-c3cccc(NC(=O)c4ccc(CC)cc4)c3C)cn(C)c2=O)ccc1C(=O)N1CCOCC1 [Compound 62, N-(3-(5-((3-acrylamide-4-(morpholin-4-carbonyl)phenyl)amino)-1-methyl-6-oxo-1,6-dihydropyridin-3-yl)-2-methylphenyl)-4-ethylbenzoylamide]",0.164 µM
7,"C=CC(=O)Nc1cc(Nc2cc(-c3cccc(NC(=O)c4ccc(N(C)C)cc4)c3C)cn(C)c2=O)ccc1C(=O)NC1CCOCC1 [Compound 51, 2-acrylamide-4-((5-(3-(4-(dimethylamino)benzoylamide)-2-methylphenyl)-1-methyl-2-oxo-1,2-dihydropyridin-3-yl)amino)-N-(tetrahydro-2H-pyran-4-yl)benzoylamide]",0.089 µM
8,"C=CC(=O)Nc1cc(Nc2cc(-c3cccc(NC(=O)c4ccc(C(C)(C)C)cc4)c3C)cn(C)c2=O)ccc1C(=O)OC [Compound 49, 2-acrylamide-4-((5-(3-(4-(tert-butyl)benzamide)-2-methylphenyl)-1-methyl-2-oxo-1,2-dihydropyridin-3-yl)amino)methyl benzoate]",0.162 µM
9,"Cc1c(NC(=O)c2ccc(N(C)C)cc2)cccc1-c1cc(Nc2ccc(C(=O)N3CCOCC3)c(NC(=O)CCl)c2)c(=O)n(C)c1 [Compound 36, N-(3-(5-((3-chloroacetamide-4-(morpholin-4-carbonyl)phenyl)amino)-1-methyl-6-oxo-1,6-dihydropyridin-3-yl)-2-methylphenyl)-4-(dimethylamino)benzoylamide]",0.024 µM
10,"C=CC(=O)Nc1cc(Nc2cc(-c3cccc(NC(=O)c4cccc(OC)c4)c3C)cn(C)c2=O)ccc1C(=O)N1CCOCC1 [Compound 59, N-(3-(5-((3-acrylamide-4-(morpholin-4-carbonyl)phenyl)amino)-1-methyl-6-oxo-1,6-dihydropyridin-3-yl)-2-methylphenyl)-3-methoxy Benzoylamide]",0.816 µM
11,"C=CC(=O)Nc1cc(Nc2cc(-c3cccc(NC(=O)c4ccc(N5CCOCC5)cc4)c3C)cn(C)c2=O)ccc1C(=O)N1CCOCC1 [Compound 15, N-(3-(5-((3-acrylamide-4-(morpholin-4-carbonyl)phenyl)amino)-1-methyl-6-oxo-1,6-dihydropyridin-3-yl)-2-methylphenyl)-4-morpholinbenzoylamide]",0.262 µM
12,"Cc1ccc(Nc2cc(-c3cccc(NC(=O)c4ccc(C(C)(C)C)cc4)c3C)cn(C)c2=O)cc1NC(=O)CCl [Compound 26, N-(3-(5-((3-chloroacetamide-4-methylphenyl)amino)-1-methyl-6-oxo-1,6-dihydropyridin-3-yl)-2-methylphenyl)-4-(tert-butyl)benzamide]",0.223 µM
13,"C=CC(=O)Nc1cc(Nc2cc(-c3cccc(NC(=O)c4ccc(C(C)(C)C)cc4)c3C)cn(C)c2=O)ccc1C(=O)N(C)C [Compound 28, 2-acrylamide-4-((5-(3-(4-(tert-butyl)benzamide)-2-methylphenyl)-1-methyl-2-oxo-1,2-dihydropyridin-3-yl)amino)-N,N-dimethylbenzoylamide]",0.025 µM
14,"CCC(=O)Nc1cc(Nc2cc(-c3cccc(NC(=O)c4ccc(C(C)(C)C)cc4)c3C)cn(C)c2=O)ccc1C(=O)N(C)C [Compound 30, 2-propanamide-4-((5-(3-(4-(tert-butyl)benzamide)-2-methylphenyl)-1-methyl-2-oxo-1,2-dihydropyridin-3-yl)amino)-N,N-dimethylbenzoylamide]",0.339 µM
15,"C=CC(=O)Nc1cc(Nc2cc(-c3cccc(NC(=O)c4ccc(C(C)(C)C)cc4)c3C)cn(C)c2=O)ccc1C(=O)N1CCN(C)CC1 [Compound 3, N-(3-(5-((3-acrylamide-4-(4-methylpiperazin-1-carbonyl)phenyl)amino)-1-methyl-6-oxo-1,6-dihydropyridin-3-yl)-2-methylphenyl)-4-(tert-butyl)benzamide]",0.144 µM
16,"C=CC(=O)Nc1cc(Nc2cc(-c3cccc(NC(=O)c4ccc(C(F)(F)F)cc4)c3C)cn(C)c2=O)ccc1C(=O)N1CCOCC1 [Compound 60, N-(3-(5-((3-acrylamide-4-(morpholin-4-carbonyl)phenyl)amino)-1-methyl-6-oxo-1,6-dihydropyridin-3-yl)-2-methylphenyl)-4-(trifluoromethyl)benzoylamide]",0.104 µM
